# Measurements from PubChem BioAssay AID1919013 (Molecular Pharmacology Branch, DTP, NCI, 2023).
# System: LG0703-F498-PDC complex spheroid growth
# Test: Anticancer human tumor LG0703-F498-PDC patient-derived lung adenocarcinoma cell line growth inhibition [AhR]
# Conditions: for IC50: curve of first compound; for viability, T/C: stronger effect = lower value
# Description: Multicellular complex tumor spheroid response to aryl hydrocarbon receptor antagonists in combination with a variety of drugs and investigational agents in selected tumor cell lines
# The current study was undertaken to assess response to aryl hydrocarbon receptor antagonists in combination with standard-of-care drugs and investigational agents in solid tumor complex spheroid models. Complex spheroids include a stromal component modeled by human endothelial cells (HUVEC) and fibroblasts modeled by human mesenchymal stem cells (MSCs). The concentration ranges selected for each drug and investigational agent were based upon clinically achievable concentrations if the clinical Cmax of the agent was known.
# Compounds. The drugs and investigational agents: BAY 2416964 (NSC825713), GNF351 (NSC835774), CH-223191 (NSC835775), CPI-455 (NSC825282), aza-TdCyd (NSC777586), decitabine (NSC127716), belinostat (NSC758774), entinostat (NSC756642), pevonedistat (NSC761192), tazemetostat (NSC777109), talazoparib (NSC765396), olaparib (NSC753686), selinexor (NSC780203), nedisertib (M3814, NSC802822), bortezomib (NSC756655), venetoclax (NSC766270), doxorubicin (NSC123127), elimusertib (BAY189344, NSC800525), ceralasertib (AZD6738, NSC777638), TAK-243 (NSC785004), alisertib (NSC759677), etoposide (NSC141540), topotecan (NSC609699), eribulin (NSC707389), gemcitabine (NSC613327), carboplatin (NSC241240), cisplatin (NSC119875), and SN-38 (NSC673596) were obtained from the National Cancer Institute (NCI) Developmental Therapeutics Program Chemical Repository (32). The FDA-approved anticancer drug set is available from the Developmental Therapeutics Program at https://dtp.cancer.gov/organization/dscb/obtaining/available plates.htm. […] The stock solutions were prepared in dimethyl sulfoxide (DMSO, Sigma-Aldrich, St. Louis, MO, cat. D2650), except for the platinum compounds which were prepared in saline (Quality Biological, Gaithersburg, MD, cat. 114-055-101), at 800-fold the tested concentration and stored at -70 degrees C prior to their use. All drugs and investigational agents were tested over a range starting from a high concentration at or near the clinical Cmax and decreasing in half-log increments. If the clinical Cmax for an agent had not been determined, the highest concentration tested was 10 microM (Table 1).
# Cell Culture. All cells were maintained in an incubator at 37 degrees C and 5% CO2 with 95% humidity. The PDC lines were cultured according to standard operating procedures established by the NCI PDMR (https://pdmr.cancer.gov). Briefly, all PDCs were thawed and cultured in Matrigel-coated flasks prepared with a working solution of 1X Ham's F-12 nutrient mix, without supplementation (Invitrogen, Waltham, MA, cat. 11765054), 100 U/mL penicillin-streptomycin (Invitrogen, cat. 15140122), and 2.5% Matrigel (Corning Inc., Corning, NY, cat. 354248) for the first three passages. All PDCs were cultured in complete DMEM/F-12 media containing advanced DMEM/F-12 (Invitrogen, cat. 12634028), 4.9% defined fetal bovine serum, heat inactivated (HyClone Laboratories Inc., Logan, UT, cat. SH30070.03HI), 389 ng/mL hydrocortisone (Sigma-Aldrich, cat. H4001), 9.7 ng/mL human EGF recombinant protein (Invitrogen, cat. PHG0313), 23.4 microg/mL adenine (Sigma-Aldrich, cat. A2786), 97.3 U/mL penicillin-streptomycin (Invitrogen, cat. 15140122), 1.9 mM L-glutamine (Invitrogen, cat. 25030081), and 9.7 microM Y-27632 dihydrochloride (Tocris Bioscience, Bristol, United Kingdom, cat. 1254). The PDCs were cultured in complete DMEM/F12 media without 10 microM Y-27632 dihydrochloride for at least two passages prior to the screen. The established cell lines NCI-H1341 and […] were cultured in DMEM/F-12, HEPES (Invitrogen, cat. 11330032), 5% defined fetal bovine serum (HyClone Laboratories Inc., cat. SH30070.03), ITS premix universal culture supplement [insulin (5 microg/mL), transferrin (5 microg/mL), and selenious acid (5 ng/mL)] […]
# 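Note: luminescence taken as a proxy for viable cell amount.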
# 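Throughout, for viability, T/C: percent of DMSO vehicle control where 100% means growth equal to vehicle.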
compound,measurement,setting,value
CC[C@@]1(O)C(=O)OCc2c1cc1n(c2=O)Cc2cc3c(CN(C)C)c(O)ccc3nc2-1 + CC(CO)NC(=O)c1cc(-c2ccc(Cl)cc2)nn(-c2cnn(C)c2)c1=O,IC50,second compound 0.1 µM,> 100 nM
same,IC50,second compound 0.316 µM,> 100 nM
same,IC50,second compound 1 µM,> 100 nM
same,IC50,second compound 3.16 µM,> 100 nM
same,IC50,second compound 10 µM,> 100 nM
same,"viability, T/C","second compound 0.1 µM, first compound 0.000316 µM",89%
same,"viability, T/C","second compound 0.1 µM, first compound 0.001 µM",101%
same,"viability, T/C","second compound 0.1 µM, first compound 0.00316 µM",86.7%
same,"viability, T/C","second compound 0.1 µM, first compound 0.01 µM",90.6%
same,"viability, T/C","second compound 0.1 µM, first compound 0.0316 µM",83.2%
same,"viability, T/C","second compound 0.1 µM, first compound 0.1 µM",66.1%
same,"viability, T/C","second compound 0.316 µM, first compound 0.000316 µM",96%
same,"viability, T/C","second compound 0.316 µM, first compound 0.001 µM",99.5%
same,"viability, T/C","second compound 0.316 µM, first compound 0.00316 µM",92.3%
same,"viability, T/C","second compound 0.316 µM, first compound 0.01 µM",80.9%
same,"viability, T/C","second compound 0.316 µM, first compound 0.0316 µM",73.2%
same,"viability, T/C","second compound 0.316 µM, first compound 0.1 µM",57.2%
same,"viability, T/C","second compound 1 µM, first compound 0.000316 µM",80.8%
same,"viability, T/C","second compound 1 µM, first compound 0.001 µM",93.2%
same,"viability, T/C","second compound 1 µM, first compound 0.00316 µM",84.5%
same,"viability, T/C","second compound 1 µM, first compound 0.01 µM",77.4%
same,"viability, T/C","second compound 1 µM, first compound 0.0316 µM",78.6%
same,"viability, T/C","second compound 1 µM, first compound 0.1 µM",61.2%
same,"viability, T/C","second compound 3.16 µM, first compound 0.000316 µM",76%
same,"viability, T/C","second compound 3.16 µM, first compound 0.001 µM",86.3%
same,"viability, T/C","second compound 3.16 µM, first compound 0.00316 µM",90.8%
same,"viability, T/C","second compound 3.16 µM, first compound 0.01 µM",79.2%
same,"viability, T/C","second compound 3.16 µM, first compound 0.0316 µM",58.6%
same,"viability, T/C","second compound 3.16 µM, first compound 0.1 µM",52.9%
same,"viability, T/C","second compound 10 µM, first compound 0.000316 µM",79.2%
same,"viability, T/C","second compound 10 µM, first compound 0.001 µM",79.7%
same,"viability, T/C","second compound 10 µM, first compound 0.00316 µM",86.6%
same,"viability, T/C","second compound 10 µM, first compound 0.01 µM",66.5%
same,"viability, T/C","second compound 10 µM, first compound 0.0316 µM",63.4%
same,"viability, T/C","second compound 10 µM, first compound 0.1 µM",51.9%
